Assays:
[1] = tested on: prostate cancer (LNCaP and PC-3) and prostate cancer (RC77 T/E and MDA PCa 2b) cell lines; assay: Caspase 3/7 activity-based apoptosis assay, prostate cancer cell lines; set-up: species or system human; settings: for apoptosis (caspase 3/7 activity), docetaxel treatment alone: without miRNA mimic/antagomir transfection
Experimental: […] RC77 T/E, a primary prostate cancer cell line derived from a patient, was kindly provided by Dr. Johng Rhim at Center for Prostate Disease Research (CPDR) in Rockville, MD. LNCaP and PC-3 were served as prostate cancer cell line models, and RC77 T/E and MDA PCa 2b were served as prostate cancer cell models in the study. The cells were cultured in specific cell culture media, LNCaP was cultured in RPMI with 10% fetal bovine serum (FBS), PC-3 was cultured in DMEM with 10% FBS, MDA PCa 2b were cultured in BRFF-HPC1 with 20% FBS and RC77 T/E was cultured in Keratinocyte SFM with Human Recombinant Epidermal Growth Factor (EGF 1-53) and Bovine Pituitary Extract (BPE). Cells were maintained at 37° C. in a 5% CO2 incubator. LNCaP, PC-3 and MDA PCa 2b cells were seeded at density 3×10^4 cells/well in 6-well plates. RC77 T/E cells were seeded at density 5×10^4 cells/well in 6-well plates. The cells were allowed to grow for 24 h and then were either transfected with miR-34a-5p mimic, miR-99b-5p mimic, or miR-96-5p antagomir using DharmaFECT4 transfection reagent (Dharmacon), according to the manufacturer's protocol. After 24 h, the cells were replaced with fresh media then incubated for 24 h. miR-34a-5p mimic, miR-99b-5p mimic, miR-96-5p antagomir, and nonsense miRNA mimic and antagomir controls were purchased from Ambion. Nonsense/scrambled miRNA mimic and antagomir were used as negative controls.
For the measurement of apoptosis initiation by transfection of miRNA mimic or antagomir in prostate cancer cells, the transfected cells 5000 cells/well were seeded onto 96-well cell culture plates (Corning) and then incubated overnight. The miRNA mimic/antagomir transfected cells were then treated with vehicle or […] of Docetaxel. 24 h after the vehicle or drug treatment, the apoptosis assays were performed using Apo-ONE Caspase-3/7 Assay Kit (Promega Corporation) according to the protocol described by the manufacturer. 100 μL of homogeneous Caspase-3/7 reagent was added to the sample plate and incubated at room temperature for 1 h. Fluorescence was detected for measuring the apoptosis state (Caspase 3/7 activity) using Biotek Synergy HT Microplate Reader (BioTek) at wavelengths of 499 nm and 521 nm for excitation and emission, respectively.

PIK3CB = assay: RT-qPCR of PIK3CB expression after miRNA mimic transfection; assay type: cell-based, human; settings: African American and European American prostate cancer cells; vs nonsense/scrambled (NS) miRNA control
Experimental: (§1) […] RC77 T/E, a primary prostate cancer cell line derived from a patient, was kindly provided by Dr. Johng Rhim at Center for Prostate Disease Research (CPDR) in Rockville, MD. LNCaP and PC-3 were served as prostate cancer cell line models, and RC77 T/E and MDA PCa 2b were served as prostate cancer cell models in the study. The cells were cultured in specific cell culture media, LNCaP was cultured in RPMI with 10% fetal bovine serum (FBS), PC-3 was cultured in DMEM with 10% FBS, MDA PCa 2b were cultured in BRFF-HPC1 with 20% FBS and RC77 T/E was cultured in Keratinocyte SFM with Human Recombinant Epidermal Growth Factor (EGF 1-53) and Bovine Pituitary Extract (BPE). Cells were maintained at 37° C. in a 5% CO2 incubator. LNCaP, PC-3 and MDA PCa 2b cells were seeded at density 3×10^4 cells/well in 6-well plates. RC77 T/E cells were seeded at density 5×10^4 cells/well in 6-well plates. […]
(§2) For the measurement of gene expression level, total RNA was isolated using miRNeasy Mini Kit (50) (Qiagen) from the prostate cancer cells used in the study. Quantification of total RNA samples were done using NanoVue Plus spectrophotometer (GE Healthcare). […] Reverse transcription was performed using iScript Reverse Transcription Supermix kit (Bio-Rad) to generate cDNA then followed by performing quantitative PCR (qPCR) assays using SsoAdvanced Universal SYBR Green supermix kit (Bio-Rad). […]

IGFBP2 [2] = assay: Western blot of IGFBP2 in transfected prostate cancer cells; assay type: cell-based, human; settings: mimic transfected vs NS transfected
Experimental: as §1
(§3) For measurement of the gene expression at protein level, proteins were extracted using M-PER Mammalian Protein Extraction Reagent (Thermo Fisher Scientific) with protease and phosphatase inhibitor cocktail (Thermo Fisher Scientific). Protein concentrations were quantified using BCA assay kit (Thermo Fisher Scientific). […]

IGFBP2 [3] = assay: RT-qPCR of IGFBP2 expression after miRNA mimic transfection; assay type: cell-based, human; settings: African American and European American prostate cancer cells; vs nonsense/scrambled (NS) miRNA control
Experimental: as §1, §2

PI3Kβ = assay: Western blot of PI3Kβ in transfected prostate cancer cells; assay type: cell-based, human; settings: mimic transfected vs NS transfected
Experimental: as §1, §3

HIF1A [4] = assay: Western blot of HIF1a in transfected prostate cancer cells; assay type: cell-based, human; settings: mimic transfected vs NS transfected
Experimental: as §1, §3

HIF1A [5] = assay: RT-qPCR of HIF1A expression after miRNA mimic transfection; assay type: cell-based, human; settings: African American and European American prostate cancer cells; vs nonsense/scrambled (NS) miRNA control
Experimental: as §1, §2

[6] = tested on: prostate cancer (LNCaP and PC-3) and prostate cancer (RC77 T/E and MDA PCa 2b) cell lines; assay: BrdU-labeling cell proliferation assay; assay type: cell-based, human; settings: PC-3, RC77 T/E and MDA PCa 2b, 48 h transfection, vs NS
Experimental: as §1
LNCaP, PC-3, RC77 T/E and MDA PCa 2b cells were seeded at density 3×10^4 cells/well in 6-well culture plates. […] 100 μL of stop solution was used to stop further reaction and followed by checking absorbance at dual wavelengths of 450 nm and 540 nm using Multiskan FC microplate photometer (Thermo Scientific).

[7] = RC77 T/E and MDA PCa 2b, 11 mM of Docetaxel, 24 h

For `CC(=O)O[C@@]12CO[C@@H]1C[C@H](O)[C@@]1(C)C(=O)[C@H](O)C3=C(C)[C@@H](OC(=O)[C@H](O)[C@@H](NC(=O)OC(C)(C)C)c4ccccc4)C[C@@](O)([C@@H](OC(=O)c4ccccc4)[C@H]21)C3(C)C` [docetaxel, reference compound], the “apoptosis (caspase 3/7 activity), docetaxel treatment alone” value (“apoptosis … docetaxel treatment alone” for short) ([1]; LNCaP, 11 mM of Docetaxel, 24 h) was “significantly induced apoptosis”, the “apoptosis … docetaxel treatment alone” value [1, 7] was “not” and the “apoptosis … docetaxel treatment alone” value ([1]; androgen-independent PC-3, 11 mM of Docetaxel, 24 h) was “not”.
In the case of “miR-34a-5p mimic: miRNA mimic of miR-34a-5p (SEQ ID NO: 1, UGGCAGUGUCUUAGCUGGUUGU), purchased from Ambion (listed as RNA, chemistry not given here; listed as Homo sapiens)”, the “PIK3CB expression (RT-qPCR)” value (PIK3CB) is reported as “decreased”, the “IGFBP2 protein level (Western blot)” value (IGFBP2 [2]) is reported as “downregulated” and the “IGFBP2 expression (RT-qPCR)” value (IGFBP2 [3]) is reported as “decreased”. The “PI3Kβ protein level (Western blot)” value (PI3Kβ) was “downregulated”, the “HIF1a protein level (Western blot)” value (HIF1A [4]) was “downregulated” and the “HIF1A expression (RT-qPCR)” value (HIF1A [5]) was “decreased”. The “docetaxel-induced cytotoxicity (caspase 3/7 activity), combination with docetaxel” value ([1]; LNCaP cells, 11 mM of Docetaxel, 24 h) was “further enhanced”, the “apoptosis (caspase 3/7 activity), transfection in the presence of docetaxel” value [1, 7] was “significantly induced apoptosis” and the “cell apoptosis (caspase 3/7 activity) compared with NS transfected cells” value ([1]; absence of docetaxel (vehicle control), LNCaP, PC-3, RC77 T/E, MDA PCa 2b) was “overall generalized or significant increase”. The “cell proliferation (BrdU labeling)” value [6] was “reduction”.
